Measurements taken from PubChem BioAssay (NCI).
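Interpolation was linear, between the two tested concentrations surrounding the appropriate level; five concentrations were tested over 48 hours in 96-well plates. At the GI50, growth is halved. TGI: concentration producing complete growth inhibition.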

Experiments:
Assay in all cases: growth of human tumour cells (NCI), 48 h
[1] = test system: UO-31 renal
[2] = test system: A549 NSCLC
[3] = test system: MDA-MB-231 breast
[4] = test system: SR leukemia
[5] = test system: OVCAR-5 ovarian
[6] = test system: M14 melanoma
[7] = test system: T-47D breast
[8] = test system: BT-549 breast
[9] = test system: HOP-62 NSCLC
[10] = test system: SK-MEL-5 melanoma
[11] = test system: CAKI-1 renal
[12] = test system: MDA-MB-435
[13] = test system: NCI-H226 lung
[14] = test system: SNB-75 CNS
[15] = test system: IGROV1 ovarian
[16] = test system: NCI/ADR-RES ovarian
[17] = test system: A498 renal
[18] = test system: SK-MEL-28 melanoma
[19] = test system: MALME-3M melanoma
[20] = test system: KM12 colon
[21] = test system: CCRF-CEM leukemia
[22] = test system: UACC-257 melanoma
[23] = test system: HT29 colon
[24] = test system: UACC-62 melanoma
[25] = test system: HCT-116 colon
[26] = test system: PC-3 prostate
[27] = test system: COLO 205 colon
[28] = test system: OVCAR-3 ovarian
[29] = test system: HS 578T breast
[30] = test system: RXF 393 renal
[31] = test system: HL-60(TB) leukemia
[32] = test system: DU-145 prostate
[33] = test system: SNB-19 CNS
[34] = test system: K-562 leukemia
[35] = test system: SW-620 colon
[36] = test system: HCT-15 colon
[37] = test system: HCC-2998 colon
[38] = test system: SK-OV-3 ovarian
[39] = test system: MCF7 breast
[40] = test system: HOP-92 NSCLC
[41] = test system: MOLT-4 leukemia
[42] = test system: 786-0 renal
[43] = test system: LOX IMVI melanoma
[44] = test system: TK-10 renal
[45] = test system: NCI-H23 lung
[46] = test system: SN12C renal
[47] = test system: EKVX NSCLC
[48] = test system: ACHN renal
[49] = test system: U251 CNS
[50] = test system: SK-MEL-2 melanoma
[51] = test system: SF-268 CNS
[52] = test system: NCI-H522 lung
[53] = test system: OVCAR-8 ovarian
[54] = test system: NCI-H460 lung
[55] = test system: SF-539 CNS
[56] = test system: SF-295 CNS
[57] = test system: RPMI-8226 leukemia

`CCOC(=O)c1cc(C(=O)c2cc(OC)c(OC)c(OC)c2)n2ccccc12` gave a TGI [1] greater than 100000 nM, a GI50 [2] of 134 nM and a TGI [2] greater than 100000 nM. The GI50 [3] was 2810 nM, the TGI [3] was greater than 100000 nM and the GI50 [4] was 41 nM. The TGI [4] was greater than 100000 nM, the GI50 [5] was 813 nM and the TGI [5] was greater than 100000 nM. The GI50 [6] was 37.7 nM, the TGI [6] was 388 nM and the GI50 [7] was 1140 nM. It also gave a TGI [7] greater than 100000 nM, a GI50 [8] of 59.7 nM and a TGI [8] greater than 100000 nM. For the same compound, the GI50 [9] was 241 nM, the TGI [9] was greater than 67900 nM and the GI50 [10] was 40.9 nM. The TGI [10] was greater than 100000 nM, the GI50 [11] was 150 nM and the TGI [11] was greater than 100000 nM. For the same compound, the GI50 [12] was less than 18.2 nM, the TGI [12] was 205 nM and the GI50 [13] was 19300 nM. For the same compound, the TGI [13] was greater than 100000 nM, the GI50 [14] was 46.1 nM and the TGI [14] was 21500 nM. It also gave a GI50 [15] of 2960 nM, a TGI [15] greater than 100000 nM and a GI50 [16] of 52.3 nM. For the same compound, the TGI [16] was 2750 nM, the GI50 [17] was 26.9 nM and the TGI [17] was 9550 nM. It also gave a GI50 [18] of 6090 nM, a TGI [18] greater than 100000 nM and a GI50 [19] of 1060 nM. It also gave a TGI [19] greater than 100000 nM, a GI50 [20] of 74.4 nM and a TGI [20] greater than 100000 nM. It also gave a GI50 [21] of 106 nM, a TGI [21] greater than 100000 nM and a GI50 [22] of 35100 nM. For the same compound, the TGI [22] was greater than 100000 nM, the GI50 [23] was 42.5 nM and the TGI [23] was greater than 100000 nM. It also gave a GI50 [24] of 43.9 nM, a TGI [24] greater than 100000 nM and a GI50 [25] of 35.3 nM. The TGI [25] was greater than 100000 nM, the GI50 [26] was 105 nM and the TGI [26] was greater than 100000 nM. It also gave a GI50 [27] of 58.8 nM, a TGI [27] of 2570 nM and a GI50 [28] of 33.4 nM. The TGI [28] was 4110 nM, the GI50 [29] was 123 nM and the TGI [29] was 46600 nM. It also gave a GI50 [30] of 70 nM, a TGI [30] of 707 nM and a GI50 [31] of 58.6 nM. For the same compound, the GI50 [32] was 175 nM, the TGI [32] was greater than 100000 nM and the GI50 [33] was 206 nM. The TGI [33] was greater than 100000 nM, the GI50 [34] was 50.1 nM and the TGI [34] was greater than 100000 nM. The GI50 [35] was 50.4 nM, the TGI [35] was greater than 100000 nM and the GI50 [36] was 56.5 nM. It also gave a TGI [36] greater than 100000 nM, a GI50 [37] of 370 nM and a TGI [37] greater than 100000 nM. The GI50 [38] was 164 nM, the TGI [38] was greater than 100000 nM and the GI50 [39] was 60.6 nM. The TGI [39] was greater than 100000 nM, the GI50 [40] was 25600 nM and the TGI [40] was greater than 100000 nM. For the same compound, the GI50 [41] was 182 nM, the TGI [41] was greater than 100000 nM and the GI50 [42] was 739 nM. The TGI [42] was greater than 42700 nM, the GI50 [43] was 133 nM and the TGI [43] was greater than 100000 nM. For the same compound, the GI50 [44] was 11600 nM, the TGI [44] was greater than 100000 nM and the GI50 [45] was 340 nM. It also gave a TGI [45] greater than 100000 nM, a GI50 [46] of 1170 nM and a TGI [46] greater than 100000 nM. It also gave a GI50 [47] of 342 nM, a TGI [47] greater than 100000 nM and a GI50 [48] of 10100 nM. For the same compound, the TGI [48] was greater than 100000 nM, the GI50 [49] was 89.9 nM and the TGI [49] was 38600 nM. The GI50 [50] was 169 nM, the TGI [50] was greater than 74800 nM and the GI50 [51] was 1120 nM. For the same compound, the TGI [51] was greater than 100000 nM, the GI50 [52] was 57.7 nM and the TGI [52] was greater than 37100 nM. For the same compound, the GI50 [53] was 259 nM, the TGI [53] was greater than 100000 nM and the GI50 [54] was 77.2 nM. The TGI [54] was greater than 100000 nM, the GI50 [55] was 103 nM and the TGI [55] was 863 nM. It also gave a GI50 [56] of 55.8 nM, a TGI [56] of 14600 nM and a GI50 [57] of 121 nM. For the same compound, the TGI [57] was greater than 100000 nM.
